Reference: PubChem BioAssay (NCI)
Several values for one entry are separate records, joined by “and”; a condition that tells them apart may be missing. Equal entries are not always repeated.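 Cells were grown in 96-well plates and exposed to each compound for 48 hours at five concentrations; endpoints were interpolated linearly between bracketing concentrations, or set to the highest concentration if not reached. Abbreviation: GI50, concentration required for 50% inhibition of growth. TGI denotes the concentration required for complete inhibition of growth.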

Tests used:
Assay in all cases: NCI anticancer screen, dose series, 48 h
[1] = system: NCI-H23 lung
[2] = system: SN12C renal
[3] = system: RXF 393 renal
[4] = system: BT-549 breast
[5] = system: UACC-62 melanoma
[6] = system: KM12 colon
[7] = system: HCT-15 colon
[8] = system: SNB-75 CNS
[9] = system: HCT-116 colon
[10] = system: IGROV1 ovarian

Structure (SMILES)	TGI [1]	TGI [2]	TGI [3]	TGI [4]	TGI [5]	TGI [6]	TGI [7]	TGI [8]	TGI [9]	TGI [10]	GI50 [1]	GI50 [2]	GI50 [3]	GI50 [5]	GI50 [6]	GI50 [7]	GI50 [8]	GI50 [9]	GI50 [10]	GI50 [4]
Cc1ccc(N=Nc2c(O)ccc3ccccc23)c(C)c1	> 100 µM	> 100 µM	> 100 µM	> 100 µM	> 100 µM	> 100 µM	> 100 µM	> 100 µM	> 100 µM	> 100 µM	–	–	–	–	–	–	–	–	–	–
Cc1oc(N)c(S(=O)(=O)/C(C#N)=C/c2ccccc2[N+](=O)[O-])c1C	79.4 µM	47.8 µM	52.8 µM	48.2 µM	46.9 µM	73.2 µM	> 100 µM	> 100 µM	78.5 µM	> 100 µM	–	–	–	–	–	–	–	–	–	–
C=CCN1C(=O)C[C@H](Cc2ccccc2)NC(=O)C[C@H](Cc2ccccc2)N(CC=C)C(=O)C[C@H](Cc2ccccc2)NC(=O)C[C@@H]1Cc1ccccc1	> 100 µM	> 100 µM	> 100 µM	> 100 µM	> 100 µM	> 100 µM	> 100 µM	50.1 µM	> 100 µM	> 100 µM	–	–	–	–	–	–	–	–	–	–
Oc1ccc(Nc2nc(Cl)c3[nH]cnc3n2)cc1	> 100 µM	> 100 µM	> 100 µM	> 100 µM	> 100 µM	> 100 µM	> 100 µM	> 100 µM	> 100 µM	> 100 µM	–	–	–	–	–	–	–	–	–	–
C[C@]12CC[C@H]3[C@@H](CC=C4C[C@@H](O)CC[C@@]43C)[C@@H]1C/C(=C\c1ccc([N+](=O)[O-])cc1)[C@@H]2O	51.7 µM	22.9 µM	21.4 µM	38 µM	34.1 µM	> 100 µM	> 100 µM	32.1 µM	14 µM	> 100 µM	–	–	–	–	–	–	–	–	–	–
COc1ccc(-c2c(/C=N/OCC(=O)O)c3sc4ccccc4n3c2/C=N/OCC(=O)O)cc1	> 50 µM	> 50 µM	> 50 µM	> 50 µM	> 50 µM	> 50 µM	> 50 µM	> 50 µM	> 50 µM	> 50 µM	–	–	–	–	–	–	–	–	–	–
COC(=O)CCCc1nc2ccccc2nc1N=Nc1ccccc1	> 100 µM	> 100 µM	> 100 µM	> 100 µM	> 100 µM	> 100 µM	> 100 µM	> 100 µM	> 100 µM	> 100 µM	–	–	–	–	–	–	–	–	–	–
CC(C)=CC(=O)OC1C2C(C)=CC(=O)C(O)C2(C)C2C3(O)OCC24C(CC(=O)OC14)C(C)C3O (stereo unspecified)	–	0.245 µM and 0.089 µM and 0.327 µM	0.0732 µM and 0.131 µM	0.00846 µM	0.0313 µM and 0.0404 µM	–	0.212 µM and 0.853 µM and 0.687 µM	0.0621 µM and 0.0711 µM and 0.062 µM	0.0172 µM and 0.0807 µM	–	0.02 µM	0.0133 µM and 0.0406 µM	0.0339 µM	0.0204 µM	0.0209 µM	0.0579 µM and 0.0541 µM	0.0338 µM	0.02 µM	0.02 µM	–
Oc1c(NCn2nc(CCCCCCCCc3nn(CNc4ccc5ccccc5c4O)c(=S)o3)oc2=S)ccc2ccccc12	> 100 µM	> 100 µM	> 100 µM	> 100 µM	> 100 µM	> 100 µM	> 100 µM	> 100 µM	50.4 µM	> 100 µM	–	–	–	–	–	–	–	–	–	–
O=C(NCc1cn(Cc2cccc(Oc3ccccc3)c2)nn1)c1cccnc1NCc1ccc(Cl)cc1	> 100 µM	> 100 µM	7.81 µM	7.63 µM	6.92 µM	> 100 µM	> 100 µM	7.77 µM	9.4 µM	> 100 µM	3.66 µM	3.44 µM	2.19 µM	2.08 µM	3.62 µM	3.39 µM	2.02 µM	3.18 µM	9.03 µM	2.72 µM
Cc1cccc(NC(=S)Nc2cccc(Cl)c2)n1	> 100 µM	> 100 µM	> 100 µM	> 100 µM	> 100 µM	> 100 µM	> 100 µM	> 100 µM	> 100 µM	> 100 µM	–	–	–	–	–	–	–	–	–	–
COc1cc(/C=C2\N=C(c3ccccc3)N(c3cc4cc(Sc5ccccc5)ccc4[nH]3)C2=O)ccc1O	> 50 µM	> 50 µM	27.4 µM	> 50 µM	> 50 µM	> 50 µM	> 50 µM	> 50 µM	> 50 µM	> 50 µM	–	–	–	–	–	–	–	–	–	–
Cc1cc2ccccc2n2c1nc1ccc(O)cc12	> 10 µM	> 10 µM	> 10 µM	> 10 µM	> 10 µM	> 10 µM	> 10 µM	> 10 µM	> 10 µM	> 10 µM	–	–	–	–	–	–	–	–	–	–
O=[N+]([O-])/C(Cl)=C(\NCCO)C(Cl)=C(Cl)Cl	> 100 µM	> 100 µM	> 96.3 µM	> 100 µM	> 100 µM	> 100 µM	76.8 µM	> 100 µM	81.5 µM	> 100 µM	–	–	–	–	–	–	–	–	–	–
CC1=NN(c2ccccc2)C(=O)/C1=C\c1c(C)[nH]n(-c2ccccc2)c1=O	> 100 µM	> 100 µM	> 100 µM	> 100 µM	> 100 µM	> 100 µM	> 100 µM	> 100 µM	> 100 µM	> 100 µM	–	–	–	–	–	–	–	–	–	–
